Measurements published in patent publication US12404250B2, “PARP inhibitors for treating cancer and asthma” (Oregon Health & Science University, priority 2018, dated 2025).

Key:
PARP10 = target: T1, PARP10 (Homo sapiens, UniProt Q53GL7); assay: GFP-PARP10 auto-MARylation in HEK 293T cells (Western blot); details: for Inhibition of PARP10 auto-MARylation in cells at 3 μM: HEK 293T cells transfected with GFP-PARP10, 3 μM for 3 h
T1 sequence (Q53GL7 1-1025): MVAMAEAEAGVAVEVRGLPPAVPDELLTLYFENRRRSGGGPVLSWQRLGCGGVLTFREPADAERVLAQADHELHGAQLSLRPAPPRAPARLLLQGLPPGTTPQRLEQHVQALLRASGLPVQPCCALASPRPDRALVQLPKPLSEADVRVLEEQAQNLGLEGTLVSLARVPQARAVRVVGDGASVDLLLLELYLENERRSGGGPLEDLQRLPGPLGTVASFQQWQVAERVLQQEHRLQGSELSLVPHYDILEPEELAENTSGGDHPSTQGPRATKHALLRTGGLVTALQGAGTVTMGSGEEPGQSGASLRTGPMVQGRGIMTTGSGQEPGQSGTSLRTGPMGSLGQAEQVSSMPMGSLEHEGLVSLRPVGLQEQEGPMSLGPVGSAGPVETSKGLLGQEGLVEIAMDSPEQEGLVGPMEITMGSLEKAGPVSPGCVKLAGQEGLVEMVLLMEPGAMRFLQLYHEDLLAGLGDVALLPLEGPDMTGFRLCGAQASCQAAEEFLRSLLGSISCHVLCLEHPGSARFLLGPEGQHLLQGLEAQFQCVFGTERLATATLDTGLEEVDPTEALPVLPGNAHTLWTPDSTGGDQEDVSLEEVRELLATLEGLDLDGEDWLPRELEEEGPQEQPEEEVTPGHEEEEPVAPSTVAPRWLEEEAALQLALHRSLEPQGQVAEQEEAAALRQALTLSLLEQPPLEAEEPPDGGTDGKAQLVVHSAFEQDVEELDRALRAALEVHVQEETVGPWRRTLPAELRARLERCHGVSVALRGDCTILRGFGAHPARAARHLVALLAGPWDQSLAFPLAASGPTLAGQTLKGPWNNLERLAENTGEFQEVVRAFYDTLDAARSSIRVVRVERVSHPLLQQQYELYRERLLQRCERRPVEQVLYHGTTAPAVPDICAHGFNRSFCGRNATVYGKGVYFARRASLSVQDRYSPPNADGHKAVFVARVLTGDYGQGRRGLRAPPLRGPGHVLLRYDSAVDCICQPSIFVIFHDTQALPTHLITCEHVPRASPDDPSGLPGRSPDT

PARP8 = target: T2, PARP8 (Homo sapiens, UniProt Q8N3A8); assay: In vitro IC50, immunoprecipitated GFP-PARP8 auto-MARylation; assay type: biochemical
T2 construct: expressed in transfected cells; host or cells: HEK 293T
T2 sequence (Q8N3A8 1-854): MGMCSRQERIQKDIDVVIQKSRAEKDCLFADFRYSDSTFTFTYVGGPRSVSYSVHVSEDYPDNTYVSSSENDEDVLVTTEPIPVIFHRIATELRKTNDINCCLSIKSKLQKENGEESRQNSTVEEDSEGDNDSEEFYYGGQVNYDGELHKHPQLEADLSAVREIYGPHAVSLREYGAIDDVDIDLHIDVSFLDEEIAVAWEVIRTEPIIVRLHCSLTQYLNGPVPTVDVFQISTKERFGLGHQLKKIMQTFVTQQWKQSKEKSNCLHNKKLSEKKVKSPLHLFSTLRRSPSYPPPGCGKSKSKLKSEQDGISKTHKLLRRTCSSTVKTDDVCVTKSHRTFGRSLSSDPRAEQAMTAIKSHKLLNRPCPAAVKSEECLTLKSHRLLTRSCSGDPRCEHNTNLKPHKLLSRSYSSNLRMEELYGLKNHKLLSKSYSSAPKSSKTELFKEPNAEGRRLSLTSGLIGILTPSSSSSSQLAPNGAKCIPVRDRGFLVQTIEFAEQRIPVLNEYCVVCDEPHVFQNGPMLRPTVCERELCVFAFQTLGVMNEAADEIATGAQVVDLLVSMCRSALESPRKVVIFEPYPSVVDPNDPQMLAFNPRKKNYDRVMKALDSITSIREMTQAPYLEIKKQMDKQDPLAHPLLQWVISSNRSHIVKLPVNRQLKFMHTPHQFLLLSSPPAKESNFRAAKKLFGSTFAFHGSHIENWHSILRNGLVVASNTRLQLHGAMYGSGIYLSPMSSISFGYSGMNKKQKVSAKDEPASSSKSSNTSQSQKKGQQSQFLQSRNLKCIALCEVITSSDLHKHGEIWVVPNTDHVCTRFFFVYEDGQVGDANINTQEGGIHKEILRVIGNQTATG
Method: Auto-MARylation was analyzed by Western blot with an ADP-ribose (ADPr) binding reagent (uncropped blots shown below).

PARP10cat = target: T3, PARP10cat (Homo sapiens, UniProt Q53GL7); assay: In vitro IC50, PARP10cat; assay type: biochemical; details: SEM from a minimum of three dose-response experiments
T3 construct: bcat; cat; PARP11
T3 sequence (Q53GL7 806-1025 limits assumed): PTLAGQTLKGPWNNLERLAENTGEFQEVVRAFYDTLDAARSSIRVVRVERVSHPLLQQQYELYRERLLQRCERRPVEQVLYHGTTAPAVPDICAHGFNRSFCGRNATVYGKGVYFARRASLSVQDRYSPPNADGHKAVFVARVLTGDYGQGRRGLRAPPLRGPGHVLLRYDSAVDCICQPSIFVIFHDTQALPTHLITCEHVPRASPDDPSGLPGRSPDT

PARP7 = target: T4, PARP7 (Homo sapiens, UniProt Q7Z3E1); assay: In vitro IC50, PARP7; assay type: biochemical; details: SEM from a minimum of three dose-response experiments
T4 sequence (Q7Z3E1 1-657): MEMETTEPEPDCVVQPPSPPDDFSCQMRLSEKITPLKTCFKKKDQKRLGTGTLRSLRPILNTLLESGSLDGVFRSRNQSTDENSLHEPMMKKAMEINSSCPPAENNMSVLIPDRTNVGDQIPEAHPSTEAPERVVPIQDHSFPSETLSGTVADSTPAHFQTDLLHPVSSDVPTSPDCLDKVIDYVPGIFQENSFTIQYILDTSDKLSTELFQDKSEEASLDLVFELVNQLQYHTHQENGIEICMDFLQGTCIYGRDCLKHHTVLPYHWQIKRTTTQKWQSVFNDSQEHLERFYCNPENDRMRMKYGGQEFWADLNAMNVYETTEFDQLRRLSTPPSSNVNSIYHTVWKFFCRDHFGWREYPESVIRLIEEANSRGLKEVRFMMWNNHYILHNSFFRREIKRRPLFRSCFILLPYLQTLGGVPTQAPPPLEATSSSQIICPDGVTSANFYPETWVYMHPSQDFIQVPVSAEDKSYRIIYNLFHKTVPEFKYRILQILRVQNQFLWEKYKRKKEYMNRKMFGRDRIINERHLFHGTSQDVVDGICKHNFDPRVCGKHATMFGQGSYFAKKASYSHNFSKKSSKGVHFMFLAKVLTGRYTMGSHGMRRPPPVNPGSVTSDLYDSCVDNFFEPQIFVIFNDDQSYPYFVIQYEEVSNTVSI

Row | SMILES | Inhibition of PARP10 auto-MARylation in cells at 3 μM (PARP10) | Inhibition of PARP10 auto-MARylation in cells, dose response (PARP10; HEK 293T cells transfected with GFP-PARP10, increasing concentrations for 90 min) | IC50 (PARP8) [µM] | IC50 (PARP10cat) [µM] | IC50 (PARP7) [µM]
1 | CC#Cc1ccc2c(=O)[nH]c(CSc3ccc(C(=O)O)cc3)nc2c1C [ITK6, 4-(((8-methyl-4-oxo-7-(prop-1-yn-1-yl)-3,4-dihydroquinazolin-2-yl)methyl)thio) benzoic acid] | inhibits PARP10 auto-MARylation in cells | inhibits PARP10 auto-MARylation in cells in a dose dependent manner | > 3 | 0.156 ± 0.018 | 24.6 ± 0.5
2 | CC#Cc1ccc2c(=O)[nH]c(CSc3ncccn3)nc2c1C [ITK7, 8-methyl-7-(prop-1-yn-1-yl)-2-((pyrimidin-2-ylthio)methyl)quinazolin-4(3H)-one] | does not inhibit PARP10 | – | > 3 | 9.28 ± 1.57 | 2.46 ± 0.5
